Ends that are not written are not given here.

The record followed here is patent US20220267374A1, “IMMUNITY INDUCER AND PHARMACEUTICAL COMPOSITION FOR PREVENTING OR TREATING AGING-RELATED DISEASES” (priority 2019, published 2022).

The subject of data set [1] is GPNMB protein. The experiment in a line: Antibody titer by ELISA in plasma of vaccinated mice. In kind it is in vivo, C57BL/6 mice. To be noted: vs control vaccine group; KLH-bound peptide 20 μg with Titer Max Gold s.c. at 8 weeks of age, HFD-fed mice; plasma up to 6 weeks; FIG. 2A. Here is the method:
First, the antibody titers of the obtained two peptide vaccines were examined. Peptide vaccine 1 or peptide vaccine 2 (20 μg) and Titer Max Gold adjuvant (Titer Max USA) conjugated with KLH as carrier protein for induction of cytotoxic antibody were mixed in two syringes according to the manufacturer's protocol for emulsification. Subsequently, eight-week-old C57BL/6 mice fed with HFD from 4 weeks of age were subcutaneously injected with KLH-binding antigen peptide (20 μg) with a Titer Max Gold adjuvant to induce cytotoxic antibodies. C57BL/6 mice in the control group were subcutaneously injected with a KLH solution (hereinafter, referred to as “control vaccine”) mixed with Titer Max Gold in an equal amount. Plasma was collected from the tail vein of each mouse immediately after administration of the peptide vaccine and after 2, 4, and 6 weeks for antibody titer analysis. The antibody titer produced by injection of each peptide was measured by ELISA. Specifically, first, a 96-well microtiter plate (Nunc-Immuno MicroWell 96-well solid plate, Thermo Scientific) was coated using a carbonate buffer containing peptide vaccine 1 or peptide vaccine 2 bonded to bovine serum albumin (BSA). […] After reacting with the TMB substrate (Sigma-Aldrich, T0440), the optical density was measured at 450 nm (0D450) using a microtiter plate reader (iMark microplate reader, Bio-Rad).
In general terms: An ELISA detects its analyte on a solid surface through an enzyme-linked reagent.

The test system of data set [2] is GPNMB protein. Briefly: Western blotting analysis of adipose tissue. Format: in vivo, C57BL/6 mice. As to conditions: HFD-fed mice, 16 weeks of age, s.c. vaccination at 8 weeks of age, vs control vaccine, FIGS. 2C, 2D. Here is the method: For adipose tissue collected from C57BL/6 mice (16 weeks of age) bred by feeding HFD from 4 weeks of age and administered with peptide vaccine 1 or a control vaccine by subcutaneous injection at a time point of 8 weeks of age, whole-cell lysates were prepared in lysis buffer (containing 10 mmol/L of Tris-HCl (pH 8), 140 mmol/L of sodium chloride, 5 mmol/L of EDTA, 0.025% of NaN3, 1 w/v % of Triton X-100, 1 w/v % of deoxycholic acid, 0.1 w/v % of SDS, 1 mmol/L of phenylmethylsulfonyl fluoride (PMSF), 5 μg/mL of leypeptin, 2 μg/mL of aprotinin, 50 mmol/L of NaF, and 1 mmol/L of […]). Then the lysates (40 to 50 μg) was separated by SDS-PAGE, the protein was transferred to a PVDF membrane (Millipore), and this was incubated with a primary antibody, followed by horseradish peroxidase (Jackson)-binding anti-rabbit immunoglobulin G (Jackson ImmunoResearch). GPNMB and β-actin were detected by enhanced chemiluminescence (Amersham). As a primary antibody, an anti-GPNMB antibody (AF2330, R & D Systems) (1/1000 dilution) was used, and as a control, anti-β-actin antibody (#4967, Cell Signaling) (1/5000 dilution) was used. As a secondary antibody, peroxidase-binding AffiniPure goat anti-rabbit IgG (H+L) (111-035-003, Jackson ImmunoResearch) (1/10000 dilution) was used. […]
In general terms: Immunoblotting shows a protein as a band on a membrane.

Data set [3] deals with replicative aging adipose precursor cells derived from C57BL/6 mice. The experiment in a line: ADCC (Antibody-Dependent-Cellular-Cytotoxicity) activity analysis. In kind it is cell-based. To be noted: purified IgG from mice administered with the vaccine; NK effector cells/target cells 1/1; LDH release, 4 hours; FIG. 2E. How it is done: ADCC (Antibody-Dependent-Cellular-Cytotoxicity) was evaluated using a CytoTox 96 non-radioactive cytotoxicity assay kit (Promega). Specifically, natural killer (NK) cells were isolated from C57BL/6 mice as effector cells using Ficoll-Paque Plus (GE Healthcare) and EasySep mouse NK cell isolation kit (STEMCELL). Subsequently, as target cells, replicative aging adipose precursor cells derived from C57BL/6 mice were seeded on a 96-well plate so as to have 10^4 cells per well. Subsequently, purified IgG antibody obtained from C57BL/6 mice bred by feeding HFD from 4 weeks of age and administered with peptide vaccine 1 or a control vaccine by subcutaneous injection at a time point of 8 weeks of age was added to each well, and incubated at 37° C. for 30 minutes. After incubation, NK cells were seeded in each well so that a ratio of the cell number of effector cells to the target cells (effector cells/target cells) was 1/1. Subsequently, the plates were incubated at 37° C. for an additional 4 hours. Subsequently, lactate dehydrogenase released in a supernatant was detected using a microtiter plate reader (iMark microplate reader, Bio-Rad). To evaluate cell death, a ratio of lysed cells to the total number of cultured cells was calculated. In FIG. 2E, “Cont vac” is a C57BL/6 mouse administered with the control vaccine, and “Gpnmb vac” is a C57BL/6 mouse administered with peptide vaccine 1.

Another data set relates to p19^Arf. The experiment in a line: Analysis of p19Arf-dependent luciferase activity. As to conditions: HFD-fed p19Arf-DTR-Luc mouse, 21 weeks of age, s.c. vaccination at 13 weeks of age; vs control vaccine; FIG. 2F. In kind it is in vivo, p19^Arf-DTR-Luc mouse.

As to “RRGDGRWKD (also: KLH conjugate; listed as Mus musculus) [peptide vaccine 1, peptide of positions 63 to 71 of mouse GPNMB protein]”, the “antibody titer against GPNMB protein” value in the data set with GPNMB protein [1] is “significantly higher”. Besides, the “expression amount of GPNMB protein” value in the data set with GPNMB protein [2] is recorded as “decreased”. Further, in data set [3], the “antibody-dependent cellular cytotoxicity (ADCC activity)” value is recorded as “exhibits antibody-dependent cellular cytotoxicity (ADCC activity)”. In the data set with p19^Arf, the “p19Arf-dependent luciferase activity in visceral adipose tissue” value is on record as “decrease”.
